In patent US7534809B2, “Phospho-indoles as HIV inhibitors” (priority 2004, dated 2009):
≈ marks a conversion by molar mass, not a printed value. Where two headings read alike, the source gives them in different places.

How the values were obtained:
[1] = Human plasma protein binding, equilibrium dialysis; assay type: in vitro ADME; details: pooled human plasma, 37° C., about 6 hours, 1 μM drug, read-out: Protein binding (human plasma) % Free
Experimental: The human plasma protein binding was determined using the Equilibrium Dialysis method. Dialysis was conducted with pooled human plasma at 37° C. for approximately 6 hours at a drug concentration of 1 μM. At the end of the dialysis, buffer samples from the buffer-side of the dialysis cell were collected and analyzed by LC/MS/MS for free drug concentration. For NNRTIs, a lower protein binding is more desirable.

[2] = target: T1, CYP2C9 (Homo sapiens, UniProt P11712); experiment: CYP450 inhibition, CYP2C9 P450-Glo assay kit; assay type: in vitro ADME
T1 construct: purchased Promega
Description: (§1) In vitro CYP450 inhibition screening allows for the prediction of potential drug-drug interactions. […] Potency and rank order of the inhibition can be assessed by determination of the IC50 values for a particular isozyme.
(§2) CYP3A4 inhibition was screened using the CYP3A4/BFC high throughput inhibitor screening kit (BD Biosciences), CYP2D6 inhibition was screened using the CYP2D6/AMMC high throughput inhibitor screening kit (BD Biosciences), and CYP2C9 inhibition was screened using the P450-Glo™ Assay kit (Promega).

[3] = Metabolic stability in rat liver microsomes; assay type: in vitro ADME; details: 10 μM, 1 mg/mL microsomes, 37° C., 2 hrs
Description: (§3) The metabolic stability assay is to evaluate the stability of test compound in biological matrices. Data are useful in terms of understanding and predicting the elimination mechanisms of the test compound. CYP450-dependent metabolism of drugs can also vary widely from one species to another. Evaluating in vitro metabolism of a drug by liver microsomes from multiple species allows the comparison of metabolism in animal species to that of humans. This can help identify the most relevant animal model for PK and toxicology studies. The metabolic stability of a test compound was evaluated in vitro in liver microsomes of the rat, dog, monkey, and human. 10 μM of the test compound was pre-incubated for 5 min at 37° C. with 1 mg/mL liver microsomes in 0.1M Tris buffer, pH 7.4 containing 5 mM MgCl2 and 0.1 mM EDTA. Following pre-incubation, NADPH (final concentration of 3 mM) was added to start the reaction and samples incubated for 0 and 1 or 2 hours. After terminating the reaction, the supernatant was analyzed by HPLC-UV or LC/MS/MS for the disappearance of the parent and formation of metabolite(s). The %parent remaining was the peak area ratio of the 1 or 2 hr sample to the time 0 sample. In general, less metabolism (higher % parent values) is more desirable.

[4] = target: T2, CYP2D6 (Homo sapiens, UniProt P10635); experiment: CYP450 inhibition, CYP2D6/AMMC screening kit; assay type: in vitro ADME
T2 construct: purchased BD Biosciences
Description: as §1, §2

[5] = Metabolic stability in monkey liver microsomes; assay type: in vitro ADME; details: 10 μM, 1 mg/mL microsomes, 37° C., 2 hrs
Description: as §3

[6] = target: T3, CYP3A4 (Homo sapiens, UniProt P08684); experiment: CYP450 inhibition, CYP3A4/BFC screening kit; assay type: in vitro ADME
T3 construct: purchased BD Biosciences
Description: as §1, §2

[7] = Metabolic stability in dog liver microsomes; assay type: in vitro ADME; details: 10 μM, 1 mg/mL microsomes, 37° C., 2 hrs
Description: as §3

[8] = Metabolic stability in human liver microsomes; assay type: in vitro ADME; details: 10 μM, 1 mg/mL microsomes, 37° C., 2 hrs
Description: as §3

[9] = pH dependent aqueous solubility, shake-flask method; assay type: physicochemical; details: aqueous solution, thermodynamic from solid, saturated concentration 1 mM
Experimental: The aqueous solubility of each compound was determined by the conventional shake-flask method at a saturated concentration of 1 mM. The flask (vial) was shaken for 3 hrs at ambient temperature, and then centrifuged. The supernatant was analyzed by HPLC with UV detection for solubility determination. In general, a higher aqueous solubility is more desirable for drug candidates.

[10] = In vitro metabolism in liver microsomes, metabolic pathway; assay type: in vitro ADME, rat, dog, monkey, and human; details: LC/MS/MS metabolite profiling
Experimental: Phase I biotransformation of a test compound is evaluated in this assay. Samples from the metabolic stability experiment were analyzed by LC/MS/MS for metabolite profiling and identification. Structures of metabolites were elucidated based on multiple MS/MS experiments such as full scan, neutral loss scan, and product ion scan. Metabolic pathways were then postulated based on the structures of major metabolites. For compounds from the phosphinate series, N-oxidation of the terminal pyridine ring is the predominant pathway, followed by the oxidation of the dimethyl-phenyl group, where the methyl group(s) is hydroxylated, further oxidized to an aldehyde, and finally to a carboxylic acid. The elucidation of metabolic pathways is important in terms of understanding the elimination mechanism of a test compound and assisting the design of new molecules with improved DM-PK profiles.

[11] = pH 1, simulated gastric fluid, pH1, ambient temperature, read-out: Aqueous solubility pH1
[12] = pH 3, aqueous buffer, pH3, ambient temperature, read-out: Aqueous solubility pH3
[13] = pH 7, aqueous buffer, pH7, ambient temperature, read-out: Aqueous solubility pH7
[14] = pH 9, aqueous buffer, pH9, ambient temperature, read-out: Aqueous solubility pH9

T2 sequence (P10635 whole entry): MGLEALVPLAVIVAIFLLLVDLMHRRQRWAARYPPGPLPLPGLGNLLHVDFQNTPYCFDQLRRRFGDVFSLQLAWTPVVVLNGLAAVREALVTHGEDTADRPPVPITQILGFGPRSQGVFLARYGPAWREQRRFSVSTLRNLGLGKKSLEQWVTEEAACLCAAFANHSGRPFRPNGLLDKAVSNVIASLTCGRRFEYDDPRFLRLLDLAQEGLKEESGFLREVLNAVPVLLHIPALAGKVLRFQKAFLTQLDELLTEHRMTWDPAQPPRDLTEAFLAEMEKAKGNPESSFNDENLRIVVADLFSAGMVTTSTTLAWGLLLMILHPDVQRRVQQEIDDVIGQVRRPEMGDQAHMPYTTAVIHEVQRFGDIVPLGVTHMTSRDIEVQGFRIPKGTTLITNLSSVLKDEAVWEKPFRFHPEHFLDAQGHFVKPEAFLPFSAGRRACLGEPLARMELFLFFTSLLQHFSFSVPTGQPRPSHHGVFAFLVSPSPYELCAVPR
T3 sequence (P08684 whole entry): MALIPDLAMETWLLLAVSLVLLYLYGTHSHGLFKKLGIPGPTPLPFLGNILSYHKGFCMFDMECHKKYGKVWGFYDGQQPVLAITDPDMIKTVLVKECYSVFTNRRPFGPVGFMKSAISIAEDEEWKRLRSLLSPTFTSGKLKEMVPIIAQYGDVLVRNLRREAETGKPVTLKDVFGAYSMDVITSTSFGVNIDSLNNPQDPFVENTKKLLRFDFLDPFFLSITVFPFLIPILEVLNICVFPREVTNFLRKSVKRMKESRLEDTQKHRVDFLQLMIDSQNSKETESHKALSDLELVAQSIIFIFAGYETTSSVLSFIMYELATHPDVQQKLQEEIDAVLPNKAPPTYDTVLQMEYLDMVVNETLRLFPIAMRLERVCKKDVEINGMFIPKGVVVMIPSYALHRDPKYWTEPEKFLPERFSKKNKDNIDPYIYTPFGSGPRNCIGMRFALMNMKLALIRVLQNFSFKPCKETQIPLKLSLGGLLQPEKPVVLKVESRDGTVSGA
T1 sequence (P11712 whole entry): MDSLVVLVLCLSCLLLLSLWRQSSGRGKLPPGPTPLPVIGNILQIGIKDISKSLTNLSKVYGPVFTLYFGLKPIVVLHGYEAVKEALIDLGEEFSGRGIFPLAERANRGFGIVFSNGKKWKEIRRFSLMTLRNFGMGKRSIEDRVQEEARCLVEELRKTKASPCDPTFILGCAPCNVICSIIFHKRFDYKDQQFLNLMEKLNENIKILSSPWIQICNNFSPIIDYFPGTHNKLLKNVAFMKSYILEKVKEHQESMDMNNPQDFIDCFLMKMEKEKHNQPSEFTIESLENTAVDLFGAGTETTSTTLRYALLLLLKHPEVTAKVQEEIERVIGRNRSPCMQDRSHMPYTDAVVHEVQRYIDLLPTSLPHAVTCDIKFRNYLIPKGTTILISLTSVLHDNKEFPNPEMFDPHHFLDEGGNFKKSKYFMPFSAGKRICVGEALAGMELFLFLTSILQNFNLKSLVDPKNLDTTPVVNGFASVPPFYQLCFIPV

COP(=O)(C1=C(C(=O)NCc2ccncc2)N=C2C=CC(Cl)=C(F)C21)c1cc(C)cc(C)c1 (stereo not drawn) [Compound O]
fraction unbound at 6 h, 1 μM [1]: 0.009
IC50 [2]: 5.35 µM
Metabolic stability in liver microsomes % Parent after 2 hrs, Rat [3]: 2%
IC50 [4]: 1.35 µM
Metabolic stability in liver microsomes % Parent after 2 hrs, Monkey [5]: 1%
IC50 [6]: 0.81 µM
Metabolic stability in liver microsomes % Parent after 2 hrs, Dog [7]: 29%
Metabolic stability in liver microsomes % Parent after 2 hrs, Human [8]: 15%
solubility at 3 h [9, 11]: 820 µM (≈ 398 µg/mL)
solubility at 3 h [9, 12]: 590 µM (≈ 287 µg/mL)
solubility at 3 h [9, 13]: 9.1 µM (≈ 4.42 µg/mL)
solubility at 3 h [9, 14]: 10.1 µM (≈ 4.91 µg/mL)

COP(=O)(C1=C(C(=O)NCc2ccncc2)N=C2C=CC(Cl)=CC21)c1cc(C)cc(F)c1 (stereo not drawn) [Compound P]
fraction unbound at 6 h, 1 μM [1]: < 0.005
IC50 [2]: 1.68 µM
Metabolic stability in liver microsomes % Parent after 2 hrs, Rat [3]: 0%
IC50 [4]: 2.01 µM
Metabolic stability in liver microsomes % Parent after 2 hrs, Monkey [5]: 3%
IC50 [6]: 0.77 µM
Metabolic stability in liver microsomes % Parent after 2 hrs, Dog [7]: 20%
Metabolic stability in liver microsomes % Parent after 2 hrs, Human [8]: 3%
solubility at 3 h [9, 11]: > 1000 µM
solubility at 3 h [9, 12]: 724 µM (≈ 342 µg/mL)
solubility at 3 h [9, 13]: 24 µM (≈ 11.3 µg/mL)
solubility at 3 h [9, 14]: 33.8 µM (≈ 15.9 µg/mL)

COP(=O)(c1cc(C)cc(F)c1)c1c(C(=O)NCc2cc[n+]([O-])cc2)[nH]c2ccc(Cl)cc12 (stereo not drawn) [Compound G]
fraction unbound at 6 h, 1 μM [1]: 0.016
IC50 [2]: 8.85 µM
Metabolic pathway (in vitro) [10]: Hydroxylation to CH3OH— to CHO— to COOH—
Metabolic stability in liver microsomes % Parent after 2 hrs, Rat [3]: 24%
IC50 [4]: > 10 µM
Metabolic stability in liver microsomes % Parent after 2 hrs, Monkey [5]: 41%
IC50 [6]: 1.14 µM
Metabolic stability in liver microsomes % Parent after 2 hrs, Dog [7]: 77%
Metabolic stability in liver microsomes % Parent after 2 hrs, Human [8]: 85%

COP(=O)(c1cc(C)cc(C)c1)c1c(C(=O)NCc2cc[n+]([O-])cc2)[nH]c2ccc(Cl)c(F)c12 (stereo not drawn) [Compound B]
fraction unbound at 6 h, 1 μM [1]: 0.038
IC50 [2]: > 10 µM
Metabolic stability in liver microsomes % Parent after 2 hrs, Rat [3]: 1%
IC50 [4]: > 10 µM
Metabolic stability in liver microsomes % Parent after 2 hrs, Monkey [5]: 63%
IC50 [6]: 1.04 µM
Metabolic stability in liver microsomes % Parent after 2 hrs, Dog [7]: 85%
Metabolic stability in liver microsomes % Parent after 2 hrs, Human [8]: 94%
solubility at 3 h [9, 11]: 190 µM (≈ 95.4 µg/mL)
solubility at 3 h [9, 12]: 170 µM (≈ 85.3 µg/mL)
solubility at 3 h [9, 13]: 200 µM (≈ 100 µg/mL)
solubility at 3 h [9, 14]: 190 µM (≈ 95.4 µg/mL)
